Results as given in ChEMBL document CHEMBL5532691, “Anti-cancer activity and mechanism of flurbiprofen organoselenium compound RY-1-92 in non-small cell lung cancer” (RSC Med Chem, 2024).

Columns and labels:
A549 [1] = experiment: Antiproliferative activity against human A549 cells assessed as inhibition of cell growth incubated for 48 hrs by MTT assay; type: functional, cell-based
NCI-H460 [2] = experiment: Antiproliferative activity against human NCI-H460 cells assessed as inhibition of cell growth incubated for 48 hrs by MTT assay; type: functional, cell-based
BEAS-2B = experiment: Cytotoxicity against human BEAS-2B cells assessed as reduction in cell viability at 3 to 300 uM measured after 48 hrs by MTT assay; type: toxicity, cell-based; conditions: dose 3-300 µM
A549 [3] = experiment: Induction of cell cycle arrest in human A549 cells assessed as accumulation of cells as G1 phase at 10 uM measured after 24 hrs by propidium iodide staining based flow cytometry analysis (reference value: 71.74%); type: functional
A549 [4] = experiment: Induction of cell cycle arrest in human A549 cells assessed as accumulation of cells as G2 phase at 10 uM measured after 24 hrs by propidium iodide staining based flow cytometry analysis (reference value: 8.69%); type: functional
A549 [5] = experiment: Induction of cell cycle arrest in human A549 cells assessed as accumulation of cells as S phase at 10 uM measured after 24 hrs by propidium iodide staining based flow cytometry analysis (reference value: 19.57%); type: functional
A549 [6] = experiment: Induction of cell cycle arrest in human A549 cells assessed as accumulation of cells as G1 phase at 30 uM measured after 24 hrs by propidium iodide staining based flow cytometry analysis (reference value: 71.74%); type: functional
A549 [7] = experiment: Induction of cell cycle arrest in human A549 cells assessed as accumulation of cells as G2 phase at 30 uM measured after 24 hrs by propidium iodide staining based flow cytometry analysis (reference value: 8.69%); type: functional
A549 [8] = experiment: Induction of cell cycle arrest in human A549 cells assessed as accumulation of cells as S phase at 30 uM measured after 24 hrs by propidium iodide staining based flow cytometry analysis (reference value: 19.57%); type: functional
NCI-H460 [9] = experiment: Induction of cell cycle arrest in human NCI-H460 cells assessed as accumulation of cells as G1 phase at 10 uM measured after 24 hrs by propidium iodide staining based flow cytometry analysis (Rvb =84.54%); type: functional
NCI-H460 [10] = experiment: Induction of cell cycle arrest in human NCI-H460 cells assessed as accumulation of cells as G2 phase at 10 uM measured after 24 hrs by propidium iodide staining based flow cytometry analysis (reference value: 8.37%); type: functional
NCI-H460 [11] = experiment: Induction of cell cycle arrest in human NCI-H460 cells assessed as accumulation of cells as S phase at 10 uM measured after 24 hrs by propidium iodide staining based flow cytometry analysis (reference value: 7.09%); type: functional
NCI-H460 [12] = experiment: Induction of cell cycle arrest in human NCI-H460 cells assessed as accumulation of cells as G1 phase at 30 uM measured after 24 hrs by propidium iodide staining based flow cytometry analysis (reference value: 84.54%); type: functional
NCI-H460 [13] = experiment: Induction of cell cycle arrest in human NCI-H460 cells assessed as accumulation of cells as G2 phase at 30 uM measured after 24 hrs by propidium iodide staining based flow cytometry analysis (reference value: 8.37%); type: functional
NCI-H460 [14] = experiment: Induction of cell cycle arrest in human NCI-H460 cells assessed as accumulation of cells as S phase at 30 uM measured after 24 hrs by propidium iodide staining based flow cytometry analysis (reference value: 7.09%); type: functional
A549 [15] = experiment: Induction of apoptosis in human A549 cells assessed as viable cells at 10 uM measured after 48 hrs by annexin V-FITC/PI staining based flow cytometry analysis (reference value: 80.26%); type: functional; conditions: read-out: Activity
A549 [16] = experiment: Induction of apoptosis in human A549 cells assessed as early apoptotic cells at 10 uM measured after 48 hrs by annexin V-FITC/PI staining based flow cytometry analysis (reference value: 0.59%); type: functional
A549 [17] = experiment: Induction of apoptosis in human A549 cells assessed as late apoptotic cells at 10 uM measured after 48 hrs by annexin V-FITC/PI staining based flow cytometry analysis (reference value: 15.12%); type: functional
A549 [18] = experiment: Induction of apoptosis in human A549 cells assessed as necrotic cells at 10 uM measured after 48 hrs by annexin V-FITC/PI staining based flow cytometry analysis (reference value: 4.03%); type: functional
A549 [19] = experiment: Induction of apoptosis in human A549 cells assessed as viable cells at 30 uM measured after 48 hrs by annexin V-FITC/PI staining based flow cytometry analysis (reference value: 80.26%); type: functional; conditions: read-out: Activity
A549 [20] = experiment: Induction of apoptosis in human A549 cells assessed as early apoptotic cells at 30 uM measured after 48 hrs by annexin V-FITC/PI staining based flow cytometry analysis (reference value: 0.59%); type: functional
A549 [21] = experiment: Induction of apoptosis in human A549 cells assessed as late apoptotic cells at 30 uM measured after 48 hrs by annexin V-FITC/PI staining based flow cytometry analysis (reference value: 15.12%); type: functional
A549 [22] = experiment: Induction of apoptosis in human A549 cells assessed as necrotic cells at 30 uM measured after 48 hrs by annexin V-FITC/PI staining based flow cytometry analysis (reference value: 4.03%); type: functional
NCI-H460 [23] = experiment: Induction of apoptosis in human NCI-H460 cells assessed as viable cells at 10 uM measured after 48 hrs by annexin V-FITC/PI staining based flow cytometry analysis (reference value: 91.81%); type: functional; conditions: read-out: Activity
NCI-H460 [24] = experiment: Induction of apoptosis in human NCI-H460 cells assessed as early apoptotic cells at 10 uM measured after 48 hrs by annexin V-FITC/PI staining based flow cytometry analysis (reference value: 0.32%); type: functional
NCI-H460 [25] = experiment: Induction of apoptosis in human NCI-H460 cells assessed as late apoptotic cells at 10 uM measured after 48 hrs by annexin V-FITC/PI staining based flow cytometry analysis (reference value: 5.41%); type: functional
NCI-H460 [26] = experiment: Induction of apoptosis in human NCI-H460 cells assessed as necrotic cells at 10 uM measured after 48 hrs by annexin V-FITC/PI staining based flow cytometry analysis (reference value: 2.47%); type: functional
NCI-H460 [27] = experiment: Induction of apoptosis in human NCI-H460 cells assessed as viable cells at 30 uM measured after 48 hrs by annexin V-FITC/PI staining based flow cytometry analysis (reference value: 91.81%); type: functional; conditions: read-out: Activity
NCI-H460 [28] = experiment: Induction of apoptosis in human NCI-H460 cells assessed as early apoptotic cells at 30 uM measured after 48 hrs by annexin V-FITC/PI staining based flow cytometry analysis (reference value: 0.32%); type: functional

IC50 (A549 [1]; A549, 48 h): 41.9 µM
IC50 (NCI-H460 [2]; NCI-H460, 48 h): 78.2 µM
SMILES: CC(C(=O)NCCC[Se]C(F)(F)F)c1ccc(-c2ccccc2)c(F)c1 (stereo unspecified)
Activity (A549 [1]; dose 3-300 µM): Dose-Dependent Effect
Activity (NCI-H460 [2]; dose 3-300 µM): Dose-Dependent Effect
Activity (BEAS-2B): Toxic
Activity (A549 [3]): 76.88%
Activity (A549 [4]): 9.29%
Activity (A549 [5]): 13.83%
Activity (A549 [6]): 7.45%
Activity (A549 [7]): 39.92%
Activity (A549 [8]): 52.63%
Activity (NCI-H460 [9]): 78.71%
Activity (NCI-H460 [10]): 10.69%
Activity (NCI-H460 [11]): 10.6%
Activity (NCI-H460 [12]): 5.73%
Activity (NCI-H460 [13]): 83.13%
Activity (NCI-H460 [14]): 11.14%
viability at 10 µM (A549 [15]): 74.6%
Activity (A549 [16]): 0.53%
Activity (A549 [17]): 20.25%
Activity (A549 [18]): 3.99%
viability at 30 µM (A549 [19]): 55%
Activity (A549 [20]): 1.13%
Activity (A549 [21]): 35.06%
Activity (A549 [22]): 8.86%
viability at 10 µM (NCI-H460 [23]): 91%
Activity (NCI-H460 [24]): 0.36%
Activity (NCI-H460 [25]): 6.97%
Activity (NCI-H460 [26]): 1.67%
viability at 30 µM (NCI-H460 [27]): 74%
Activity (NCI-H460 [28]): 1.97%
